# Data published in patent US20240361338A1, “DIAGNOSIS AND TREATMENT OF ECTOPIC ENDOMETRIOSIS” (FERRING B.V., priority 2021, published 2024).
# Key:
# [1] = system: ectopic EMSCs; test: Annexin V apoptosis assay on E-MSCs; type: cell-based, human; details: different concentrations, after 24, 48 and 72 hours
# Protocol: FIG. 3: Quinagolide effect on EMSCs apoptosis and proliferation. A: Quinagolide concentration-response curve on ectopic EMSCs in both apoptosis (N=1) and proliferation (N=2) assays. B: Effect of two selected quinagolide doses (10^−5 and 10^−7M) on HUVECs (N=1) and ectopic E-MSCs (N=3) apoptosis and proliferation assays (N=2). Data are represented as mean±SD of the indicated number of experiments and normalized to untreated cells (Control). Annexin V assays were performed using the Muse™ Annexin V & Dead Cell Kit (Millipore), according to the manufacturer's recommendations. Briefly, 20×10^3 cells were plated and after 24 h treated with different concentrations of quinagolide. After 24, 48 and 72 hours, cells were detached and resuspended in Muse™ Annexin V & Dead Cell Kit and the percentage of apoptotic cells (Annexin V+) was measured. Data are expressed as the mean±standard deviation (SD) of the media of absorbance of at least three different experiments and normalized to control.
# [2] = system: eutopic E-MSCs; test: Matrigel transwell invasion assay, eutopic E-MSCs; type: cell-based, human; details: 100 nM, 48 h, vs untreated
# Protocol: FIG. 4: Quinagolide effect on EMSCs invasion. A and B: Representative micrographs (A) and quantification (B) of quinagolide effect (100 nM) on eutopic and ectopic (both ovarian and peritoneal) EMSCs invasion (original magnification: ×100). C: Concentration response effect of quinagolide treated ectopic EMSCs invasion. D and E: Quantification (D) and representative micrographs (E) (original magnification: ×100) of invasion assays performed on ectopic EMSCs (both ovarian and peritoneal), treated with 100 nM quinagolide (Q100 nM), 5 μM spiperone(S) or a combination of quinagolide and spiperone (S+Q100 nM). All invasion data are represented as mean±SD of at least three independent experiments, performed on different EMSC lines, and normalized to untreated cells (CTL). One-way ANova was performed: *=p<0.05 and **=p<0.001 vs CTL. Quinagolide powder (provided by Ferring Pharmaceuticals) was stored at 4° C. and resuspended in dimethylsulphoxide (DMSO) to a stock solution of 1 mM immediately before use. Spiperone powder (Sigma-Aldrich) was resuspended in water to a stock concentration of 1 mM and stored at −20° C. […] At least five pictures per transwell were acquired (original magnification: 100×), and the percentage of transwell area covered by invaded EMSCs was quantitatively measured by ImageJ software.
# [3] = system: ectopic E-MSCs; test: Matrigel transwell invasion assay, ectopic E-MSCs; type: cell-based, human
# Protocol: FIG. 4: Quinagolide effect on EMSCs invasion. A and B: Representative micrographs (A) and quantification (B) of quinagolide effect (100 nM) on eutopic and ectopic (both ovarian and peritoneal) EMSCs invasion (original magnification: ×100). C: Concentration response effect of quinagolide treated ectopic EMSCs invasion. D and E: Quantification (D) and representative micrographs (E) (original magnification: ×100) of invasion assays performed on ectopic EMSCs (both ovarian and peritoneal), treated with 100 nM quinagolide (Q100 nM), 5 μM spiperone(S) or a combination of quinagolide and spiperone (S+Q100 nM). All invasion data are represented as mean±SD of at least three independent experiments, performed on different EMSC lines, and normalized to untreated cells (CTL). One-way ANova was performed: *=p<0.05 and **=p<0.001 vs CTL. Quinagolide powder (provided by Ferring Pharmaceuticals) was stored at 4° C. and resuspended in dimethylsulphoxide (DMSO) to a stock solution of 1 mM immediately before use. Spiperone powder (Sigma-Aldrich) was resuspended in water to a stock concentration of 1 mM and stored at −20° C. Cabergoline powder (Sigma-Aldrich) was dissolved in DMSO to a stock concentration of 25 mM and stored at −20° C. […] Quinagolide, cabergoline, sorafenib and cabozantinib and were administered for 24 hours during co-culture experiments, while spiperone was added to culture medium 1 h before quinagolide treatment. […] E-MSCs were seeded in triplicate in Matrigel-precoated (100 μg Matrigel/transwell) 8-um pore transwells at a concentration of 50,000 cells per well in 200 μl of RPMI 2% FCS with/without quinagolide at the indicated concentration. To test the D2 antagonist effect, E-MSCs were pre-treated with spiperone (5 μM) for 1 h at 37° C. before cell detachment. After 48 hours, invaded E-MSCs on the bottom side of the transwell were fixed with methanol and stained with crystal violet. At least five pictures per transwell were acquired (original magnification: 100×), and the percentage of transwell area covered by invaded EMSCs was quantitatively measured by ImageJ software.
# [4] = system: eutopic E-MSCs; test: Endothelial differentiation (CD31) of eutopic E-MSCs in co-culture with HUVECs; type: cell-based, human; details: 100 nM, 24-h treatment, 48 h co-culture with HUVECs
# [5] = system: VEGF; test: VEGF levels in the E-MSC-HUVEC coculture model; type: cell-based, human; details: quinagolide treated coculture
# Protocol: An indirect co-culture assembly was obtained plaiting HUVECs and E-MSCs at a ratio of 1:1 (1.5×10^4/cell line) in E-MSC medium in T25 and maintaining the co-culture for 48 h in 37° C. and 5% CO2 atmosphere incubator. HUVECs and E-MSCs cultured alone were used as control for each experiment.
# [6] = system: AKT; test: Western blot of P-AKT in E-MSC-HUVEC cocultures; type: cell-based, human; details: 100 nM quinagolide 24 h
# Protocol: FIG. 6: Quinagolide effect on AKT activation. A: Representative western blot analysis and quantification of AKT levels in eutopic and ectopic EMSCs treated for 48 h with 100 nM quinagolide (Q), compared to untreated cells (CTL). B: Representative western blot analysis and quantification of P-AKT levels, normalized to AKT expression, in eutopic and ectopic EMSCs treated for 48 h with 100 nM quinagolide (Q), respect to untreated cells (CTL). C: Representative western blot analysis and quantification of P-AKT levels in HUVECs, ectopic […] basal), and in […] co-culture with HUVECs, treated or not for 24 h with 100 nM quinagolide (Q100 nM). Data are represented as mean±SD of at least two independent experiments, performed on different EMSC lines, and normalized to Vinculin and to untreated cells (CTL). One-way ANOVA was performed: *=p<0.05 and **=p<0.001 vs CTL. Cell pellets were lysed at 4° C. for 15 minutes in RIPA buffer supplemented with protease and phosphatase inhibitors cocktail and PMSF (Sigma-Aldrich). Proteins were quantified using Bradford solution following the manufacturer procedures (Bio-Rad Inc., Berkely, CA, USA) and aliquots of cell lysates containing 50 μg of proteins were run on 4-12% Mini-Protean TGX Stain-Free Gels (Bio-Rad) under reducing conditions and transferred onto PVDF membrane filters using the iBLOT2 system (Life Technologies). […]
# [7] = molecular target: dopamine D2 (Homo sapiens, UniProt P14416); details: Igbokwe et al, 2009; read-out: EC50 as D2 agonist; cited from earlier work
# Chain of dopamine D2 (P14416 1-414 isoform P14416-2): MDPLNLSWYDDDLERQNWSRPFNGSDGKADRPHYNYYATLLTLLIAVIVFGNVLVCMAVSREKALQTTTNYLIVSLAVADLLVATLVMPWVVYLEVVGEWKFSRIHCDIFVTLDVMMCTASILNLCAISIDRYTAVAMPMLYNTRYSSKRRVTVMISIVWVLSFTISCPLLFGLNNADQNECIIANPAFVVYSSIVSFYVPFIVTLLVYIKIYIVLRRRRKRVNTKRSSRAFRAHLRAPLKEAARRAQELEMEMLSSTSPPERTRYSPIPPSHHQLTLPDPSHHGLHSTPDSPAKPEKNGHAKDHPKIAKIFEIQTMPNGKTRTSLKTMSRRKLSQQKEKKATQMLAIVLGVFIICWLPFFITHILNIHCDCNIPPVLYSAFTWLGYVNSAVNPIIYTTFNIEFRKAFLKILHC
# [8] = system: experimentally induced endometriosis; details: Akyol et al., 2016; cited from earlier work
# [9] = long-term prolactinoma treatment (Schultz et al., 2000; Barlier et al., 2006); cited from earlier work
smiles,measurement,setting,value
"CCCN1C[C@@H](NS(=O)(=O)N(CC)CC)C[C@@H]2Cc3c(O)cccc3C[C@H]21 [quinagolide, N,N-diethyl-N′-[(3S,4aS,10aR)-6-hydroxy-1-propyl-1,2,3,4,4a,5,10,10a-octahydrobenzo[g]quinolin-3-yl]sulfamide]",apoptosis of E-MSCs (Annexin V+),[1],did not increase apoptosis
same,invasion of eutopic E-MSC lines,[2],significantly reduced
same,invasion of ectopic E-MSC lines,"[3]; 100 nM, 48 h, Matrigel, vs untreated",significantly reduced
same,concentration response of invasion reduction,"[3]; ectopic EMSCs, 48 h (FIG. 4C)",dose-dependent
same,percentage of CD31 expressing E-MSCs after co-culture,[4],no significant alteration
same,levels of VEGF in the coculture model,[5],did not reduce
same,AKT phosphorylation,[6],reduced
same,EC50,[7],0.058 nM
same,outcome in experimentally induced endometriosis rat model,[8],successfully tested
same,safety and tolerability,[9],safe and well-tolerated
